The text below walks through data of patent US10676474B2, “1,6-naphthyridine derivatives as CDK4/6 inhibitor” (CSTONE PHARMACEUTICALS, priority 2016, dated 2020).

In brackets after ≈: the same amount, converted by molar mass.

Data set [1] in a line: Metabolic stability in human liver microsomes. The data set is classed as in vitro ADME. The settings on record: 0.5 mg/mL protein, read-out: Human T1/2. Here is the method:
This assay is used to test the metabolic stability of tested substances in rats, mice and human liver microsomes.
1) The tested compound with concentration of 1 μM was co-incubated with liver microsomes with a protein concentration of 0.5 mg/mL under a reducing coenzyme II regeneration system in a 37° C. water bath.
2) The positive controls include: testosterone (3A4 substrate), propafenene (2D6 substrate) and diclofenac (2C9 substrate). The incubation condition of the positive controls was consistent with that of the compound.
3) The reaction time points were: 0, 5, 10, 20, 30 and 60 minutes, and the reaction is terminated at the corresponding time point using a termination solution containing an internal standard. The compounds were also incubated with microsomes for 60 minutes without a reducing coenzyme II regeneration system and served as a negative control.
4) Each time point was a single point (n=1).
5) The sample was determined by LC/MS/MS, and the compound concentration was shown as the ratio of the peak area of the compound to the peak area of the internal standard (non-standard).
6) In the project report summary, the half-life and the clearance rate would be calculated.

Data set [2] in a line: Thermodynamic solubility test (shake-flask, HPLC). The settings on record: phosphate buffer, aqueous buffer, thermodynamic from solid; pH = 7.4, Table 3-2; read-out: Thermodynamic solubility. The data set is classed as physicochemical. The protocol: The thermodynamic solubility of the compounds was determined by the shake-flask method and HPLC. The solubility of the compounds is an important property that affects drug screening of compounds and the absorption of compounds in animals and humans. A saturated solution of the compound was first given and quantitatively tested by HPLC to obtain the solubility of the compound.
50 mM phosphate buffer solution, pH 7.4.
Not less than 2 mg of the sample powder was weighed into a vial of Whatman miniuniprep. If test of the thermodynamic solubility of a sample in multiple buffer solutions is required, an individual vial is required for each test.
450 μL of the buffer solution (pH 7.4) was added to each Whatman miniuniprep vial.
After the addition of the buffer solution, the Whatman miniuniprep cap with a filter was mounted and pressed above the liquid level so that the filter could contact with the buffer solution during shaking.
And the observation of the solution was recorded.
It was shaked at 550 RPM for 24 hours at room temperature (about 22 to 25° C.).
The Whatman Miniunipreps filter cap was pressed to the bottom to give the filtrate of the sample solubility solution. All sample vials should be filtered before and after insoluble substances and their leakage.
The buffer was diluted 50 folds to give a sample diluent.
Three UV standards from low to high concentration were injected into HPLC, followed by the injection of the dilutions and supernatants of the tested compounds. The tested sample was injected twice.

Data set [3] relates to non-small cell lung cancer NCI-H358 model. The data set can be described thus: In vivo pharmacodynamic study (2), NCI-H358 model, tumor volume. The arrangement: species or system BALB/c nude mice. Particulars: for Gross tumor volume (Day 1): Day 1, Table 6-2; for Gross tumor volume (Day 28): Day 28, Table 6-2. Here is the method: The in vivo pharmacodynamic experiments were performed on the BALB/c nude mice implanted subcutaneously with the non-small cell lung cancer NCI-H358 model.
All of the cages, beddings and water were disinfected before use. All of the animals were permitted free access to a standard certified commercial laboratory diet. A total of 86 mice purchased from Vital River Laboratory Animal Co., LTD, Beijing were used for the study. The animal information of the experiments in Example 34 was as follows: BALB/c nude mice, female, 6-8 weeks, weighing approximately 16-18 g, were placed in a single ventilated cage (4 mice per cage) under a special pathogen free environment. All of the cages, beddings and water were disinfected before use. All of the animals were permitted free access to a standard certified commercial laboratory diet. A total of 56 mice purchased from Shanghai Lingchang Biotechnology Co., Ltd. were used for the study.
Each mouse was implanted subcutaneously with NCI-H358 tumor cells in the right back for tumor growth. The dosing initiated when the average tumor volume reached about 100-200 mm^3. […] The tumor volume was measured twice a week using a two-dimensional caliper, and the volume was measured in mm^3, calculated by the following the formula: V=0.5 a×b^2, wherein, a and b were the long and short diameters of the tumor, respectively. The antitumor efficacy was determined by dividing the average increase in the tumor volume of the animals treated with the compound by the average increase in the tumor volume of the untreated animals, and the safety of the compound was determined by the change in the body weight of the animal treated with the compound.
TGI: Tumor Growth Inhibition.

As for `CC(=O)c1c(C)c2cnc(Nc3cnc(N4CCN(CCN(C)C)CC4)cn3)cc2n(C2CCCC2)c1=O` [Example 34], the half-life at 1 μM in data set [1] worked out at 43.1 min. In addition, the thermodynamic solubility at 24 h in data set [2] is 6.42 mM (≈ 3330 µg/mL). In data set [3] (20 mg/kg orally daily), the “Gross tumor volume (Day 1)” value was 149 ± 18 mm^3, the “TGI (Day 28)” value is given as 15.3% and the “Gross tumor volume (Day 28)” value is 940 ± 70 mm^3. Also, in data set [3] (60 mg/kg orally daily), the “Gross tumor volume (Day 1)” value is recorded as 169 ± 27 mm^3, the “TGI (Day 28)” value is 32.1% and the “Gross tumor volume (Day 28)” value was determined as 804 ± 103 mm^3. Further, in data set [3] (150 mg/kg orally daily), the “Gross tumor volume (Day 1)” value worked out at 149 ± 18 mm^3, the “TGI (Day 28)” value is listed as 92.9% and the “Gross tumor volume (Day 28)” value is 215 ± 34 mm^3.

Usually solubility (thermodynamic) stands for solubility found after equilibrating the solid with the medium.
